The record followed here is ChEMBL document CHEMBL5042533, “Structural Optimization and Structure-Activity Relationship Studies of 6,6-Dimethyl-4-(phenylamino)-6H-pyrimido[5,4-b][1,4]oxazin-7(8H)-one Derivatives as A New Class of Potent Inhibitors of Pan-Trk and Their Drug-Resistant Mutants” (J Med Chem, 2022).

The test system of data set [1] is BaF3. The data set can be described thus: cells. As to conditions: Mus musculus, BaF3, 72 h.
Description: Cytotoxicity against mouse BaF3 cells expressing TEL fused TrkC G696C assessed as inhibition of cell growth incubated for 3 days by CCK-8 assay
The target in data set [2] is High affinity nerve growth factor receptor (Homo sapiens, UniProt P04629). Put plainly: Inhibition of wild type TrkA (unknown origin) using poly(Glu: Tyr) as substrate preincubated for 15 mins followed by substrate addition and further incubated for 30 mins in presence of [gamma-33P]ATP by scintillation counting method.
A further data set can be described thus: in vitro. As to conditions: mouse, BaF3 cells.
In data set [3] the test system is BaF3. The data set can be described thus: cells. As to conditions: Mus musculus.
Description: Cytotoxicity against mouse BaF3 cells harboring TEL fused TrkC G613R mutant assessed as inhibition of cell growth by MTT assay
Data set [4] relates to BaF3. The data set can be described thus: cells. The following applies: Mus musculus, BaF3, 72 h. The source holds these as a separate data set.
Description: Cytotoxicity against mouse BaF3 cells expressing TEL fused TrkA assessed as inhibition of cell growth incubated for 3 days by CCK-8 assay
Data set [5] concerns BaF3. Put plainly: cells. As to conditions: Mus musculus, BaF3, 72 h. The source holds these as a separate data set.
Description: Cytotoxicity against mouse BaF3 cells expressing TEL fused TrkC G623R assessed as inhibition of cell growth incubated for 3 days by CCK-8 assay
The subject of data set [6] is BaF3. The data set can be described thus: cells. The following applies: Mus musculus, BaF3, 72 h. The source holds these as a separate data set.
Description: Cytotoxicity against mouse BaF3 cells expressing TEL fused TrkC assessed as inhibition of cell growth incubated for 3 days by CCK-8 assay
Data set [7] concerns BaF3. The data set can be described thus: cells. As to conditions: Mus musculus, BaF3, 72 h. The source holds these as a separate data set.
Description: Cytotoxicity against mouse BaF3 cells expressing CD74 fused TrkA assessed as inhibition of cell growth incubated for 3 days by CCK-8 assay
Data set [8] relates to BaF3. Put plainly: cells. The following applies: Mus musculus, BaF3, 72 h. The source holds these as a separate data set.
The test system of data set [9] is BaF3. The data set can be described thus: Cytotoxicity against mouse BaF3 cells expressing LMNA fused TrkA F589L mutant assessed as inhibition of cell growth incubated for 3 days by CCK-8 assay. Format: functional, cell-based. As to conditions: BaF3, 72 h.
The test system of data set [10] is BaF3. Put plainly: cells. The following applies: Mus musculus, BaF3, 72 h. The source holds these as a separate data set.
Data set [11] has as its target BDNF/NT-3 growth factors receptor (Homo sapiens, UniProt Q16620). Put plainly: Inhibition of wild type TrkB (unknown origin) using poly(Glu: Tyr) as substrate preincubated for 15 mins followed by substrate addition and further incubated for 30 mins in presence of [gamma-33P]ATP by scintillation counting method.
Another data set can be described thus: cells. As to conditions: Homo sapiens, KM12-Luc, 72 h.
Data set [12] concerns BaF3. Put plainly: cells. As to conditions: Mus musculus, BaF3, 72 h. The source holds these as a separate data set.
Description: Cytotoxicity against mouse BaF3 cells expressing LMNA fused TrkA G667S mutant assessed as inhibition of cell growth incubated for 3 days by CCK-8 assay
Data set [13] in a line: Toxicity in NOD-SCID mouse allografted with larotrectinib-resistant mouse BaF3 cells expressing TEL fused TrkC G623R mutant assessed as body weight loss at 40 mg/kg, po qd measured every 2 or 3 days for 10 days. Format: organism-based. The following applies: in vivo, 240 h, time 10 day.
A short description of data set [14]: Toxicity in NOD-SCID mouse allografted with mouse BaF3 cells expressing TEL fused TrkA assessed as body weight loss at 40 mg/kg, po qd measured every 2 or 3 days for 10 days. Format: organism-based. As to conditions: in vivo, 240 h, time 10 day.
The nature of data set [15]: Toxicity in NOD-SCID mouse assessed as histological changes in lung at 5 to 20 mg/kg, iv measured after 10 days by H and E staining based microscopic analysis. Format: organism-based. The following applies: in vivo, 240 h, dose 5-20 mg/kg, time 10 day.
Data set [16] concerns BaF3. Put plainly: Antitumour activity against larotrectinib-resistant mouse BaF3 cells expressing TEL fused TrkC G623R mutant allografted in NOD-SCID mouse assessed as reduction in tumor growth at 40 mg/kg/day, po qd measured every 2 or 3 days for 10 days. Type of data set: functional, organism-based. The following applies: time 10.0 day.
A short description of data set [17]: Toxicity in NOD-SCID mouse assessed as histological changes in spleen at 5 to 20 mg/kg, iv measured after 10 days by H and E staining based microscopic analysis. Format: organism-based. The following applies: in vivo, 240 h, dose 5-20 mg/kg, time 10 day.
For data set [18], the system named is BaF3. Put plainly: Antitumour activity against mouse BaF3 cells expressing TEL fused TrkA allografted in NOD-SCID mouse assessed as reduction in tumor progression at 40 mg/kg/day, po qd measured every 2 or 3 days for 10 days. As to conditions: time 10.0 day. Format: functional, organism-based.
For data set [19], the system named is BaF3. The data set can be described thus: In vivo inhibition of Trk signalling in NOD-SCID mouse allografted with mouse BaF3 cells expressing TEL fused TrkC G623R mutant assessed as reduction in p-Erk level at 5 to 20 mg/kg, iv qd measured after 10 days by IHC staining based analysis. Format: functional, organism-based. As to conditions: dose 5-20 mg/kg, time 10.0 day.

For data set [20], the system named is BaF3. The data set can be described thus: In vivo inhibition of Trk signalling in NOD-SCID mouse allografted with mouse BaF3 cells expressing TEL fused TrkC G623R mutant assessed as reduction in p-Akt level at 5 to 20 mg/kg, iv qd measured after 10 days by IHC staining based analysis. As to conditions: dose 5-20 mg/kg, time 10.0 day. Format: functional, organism-based.

Data set [21] in a line: Toxicity in NOD-SCID mouse assessed as histological changes in liver at 5 to 20 mg/kg, iv measured after 10 days by H and E staining based microscopic analysis. Type of data set: organism-based. The following applies: in vivo, 240 h, dose 5-20 mg/kg, time 10 day.
Data set [22] concerns BaF3. The data set can be described thus: In vivo inhibition of Trk signalling in NOD-SCID mouse allografted with mouse BaF3 cells expressing TEL fused TrkC G623R mutant assessed as reduction in p-Trk level at 5 to 20 mg/kg, iv qd measured after 10 days by IHC staining based analysis. Format: functional, organism-based. As to conditions: dose 5-20 mg/kg, time 10.0 day.
Data set [23] can be described thus: Toxicity in NOD-SCID mouse assessed as histological changes in kidney at 5 to 20 mg/kg, iv measured after 10 days by H and E staining based microscopic analysis. Type of data set: organism-based. The following applies: in vivo, 240 h, dose 5-20 mg/kg, time 10 day.
Data set [24] can be described thus: Toxicity in NOD-SCID mouse assessed as histological changes in heart at 5 to 20 mg/kg, iv measured after 10 days by H and E staining based microscopic analysis. Format: organism-based. The following applies: in vivo, 240 h, dose 5-20 mg/kg, time 10 day.

Activity calls are given as the source filed them. The calls are words filed in the database; no cut-off is given here.

For orientation: IC50 means the concentration that inhibits the measured activity by half.

Chain of High affinity nerve growth factor receptor (P04629 whole entry): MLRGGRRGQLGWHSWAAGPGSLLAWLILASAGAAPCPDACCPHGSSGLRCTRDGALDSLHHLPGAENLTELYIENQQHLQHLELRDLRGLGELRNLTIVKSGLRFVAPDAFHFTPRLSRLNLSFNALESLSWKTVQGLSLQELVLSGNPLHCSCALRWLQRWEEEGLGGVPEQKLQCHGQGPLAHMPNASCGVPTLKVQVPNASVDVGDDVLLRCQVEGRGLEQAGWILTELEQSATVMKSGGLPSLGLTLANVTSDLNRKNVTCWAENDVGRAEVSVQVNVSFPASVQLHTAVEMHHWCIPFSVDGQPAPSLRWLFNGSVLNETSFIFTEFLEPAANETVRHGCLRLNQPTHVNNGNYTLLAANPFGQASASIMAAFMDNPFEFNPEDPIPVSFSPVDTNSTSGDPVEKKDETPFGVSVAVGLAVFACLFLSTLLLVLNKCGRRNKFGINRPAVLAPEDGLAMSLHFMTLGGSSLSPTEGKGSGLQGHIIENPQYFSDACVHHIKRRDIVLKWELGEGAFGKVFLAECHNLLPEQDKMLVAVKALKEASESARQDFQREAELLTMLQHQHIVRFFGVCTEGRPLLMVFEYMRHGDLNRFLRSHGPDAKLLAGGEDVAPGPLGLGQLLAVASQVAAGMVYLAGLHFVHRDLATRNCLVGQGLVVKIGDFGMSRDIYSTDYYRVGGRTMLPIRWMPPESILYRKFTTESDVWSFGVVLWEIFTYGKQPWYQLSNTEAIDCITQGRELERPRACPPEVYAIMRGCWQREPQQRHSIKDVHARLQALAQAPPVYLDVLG
Chain of BDNF/NT-3 growth factors receptor (Q16620 whole entry): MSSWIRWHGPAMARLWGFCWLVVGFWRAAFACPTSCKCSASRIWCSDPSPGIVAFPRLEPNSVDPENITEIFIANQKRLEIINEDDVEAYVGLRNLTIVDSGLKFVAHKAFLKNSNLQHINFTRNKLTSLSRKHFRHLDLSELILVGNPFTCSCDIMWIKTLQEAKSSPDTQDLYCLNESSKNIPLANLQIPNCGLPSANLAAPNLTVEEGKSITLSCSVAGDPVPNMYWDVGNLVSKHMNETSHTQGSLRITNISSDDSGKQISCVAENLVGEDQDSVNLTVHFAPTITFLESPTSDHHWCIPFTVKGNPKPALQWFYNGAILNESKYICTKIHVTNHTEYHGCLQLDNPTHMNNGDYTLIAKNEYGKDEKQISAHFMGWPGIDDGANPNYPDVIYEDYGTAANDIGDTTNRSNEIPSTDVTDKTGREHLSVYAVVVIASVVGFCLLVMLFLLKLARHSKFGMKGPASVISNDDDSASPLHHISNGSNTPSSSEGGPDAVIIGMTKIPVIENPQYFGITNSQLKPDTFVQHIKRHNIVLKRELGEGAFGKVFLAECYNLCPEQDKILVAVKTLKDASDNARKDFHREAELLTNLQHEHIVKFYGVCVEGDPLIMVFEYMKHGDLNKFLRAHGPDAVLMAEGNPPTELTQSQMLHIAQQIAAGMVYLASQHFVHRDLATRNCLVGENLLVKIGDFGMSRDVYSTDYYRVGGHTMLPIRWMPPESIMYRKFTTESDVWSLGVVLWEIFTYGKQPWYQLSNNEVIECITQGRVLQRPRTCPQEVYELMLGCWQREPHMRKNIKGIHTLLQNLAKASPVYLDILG
Description for in vitro: Cytotoxicity against mouse BaF3 assessed as inhibition of cell growth incubated for 3 days by CCK-8 assay

As to `Cc1cc(NC(=O)Nc2cc(C(C)(C)C)nn2-c2ccc(F)c(F)c2)ccc1Nc1ncnc2c1OC(C)(C)C(=O)N2`, the IC50 in the data set with BaF3 [1] was 2 nM; in data set [2], 9 nM; in the data set with BaF3 [3] it was 34 nM; in the data set with BaF3 [4], 2 nM; with BaF3 [5], 34 nM; in the data set with BaF3 [6], 25 nM. In addition, the IC50 in the data set on BaF3 [7] was 5 nM; in the data set with BaF3 [8] it was 82 nM; in the data set on BaF3 [9] it was 10 nM; in the data set on BaF3 [10], 1 nM; in data set [11] it was 19 nM; in the data set “cells” it was 8 nM. Further, the IC50 in the data set with BaF3 [12] came to 14 nM. Also, the IC50 at 3 days in the data set “in vitro” is above 10000 nM.

As to `C[C@@H]1CCc2ncc(F)cc2[C@H]2CCCN2c2ccn3ncc(c3n2)C(=O)N1` [SELITRECTINIB], the Activity entry in [13], in data set [14], in data set [15], in data set [17], in data set [21] and in [23] was “Non-Toxic” in each case. Besides, the Activity result in [24] is given as “Non-Toxic”. In addition, the IC50 in the data set on BaF3 [1] worked out at 50 nM; in the data set with BaF3 [3] it was 18 nM; in the data set on BaF3 [4] it was 9 nM; in the data set with BaF3 [5], 18 nM; with BaF3 [6] it was 4 nM; with BaF3 [7], 1 nM. For the same molecule, the IC50 was found to be 15 nM with BaF3 [8]; 17 nM in the data set on BaF3 [9]; 109 nM in the data set with BaF3 [10]; 5 nM in “cells”; 30 nM with BaF3 [12]. Further, the outcome in the data set on BaF3 [16] and in the data set on BaF3 [18] was Active. The same molecule gave an IC50 at 3 days in “in vitro” above 10000 nM. The inhibition entry in the data set with BaF3 [19], in the data set on BaF3 [20] and in the data set with BaF3 [22] was “Active” throughout.
